Test results as given in the NIST ThermoML archive (doi:10.1016/j.jct.2008.12.002).

Assay: xn = mol fraction of the nth substance listed
Details: 101 kPa, Liquid, Vibrating tube method

CCCCn1cc[n+](C)c1.F[B-](F)(F)F [1-butyl-3-methylimidazolium tetrafluoroborate] + OCCO
mass density [kg/m3]
Details | 298.15 K | 308.15 K | 318.15 K
x1 = 0.0266 | 1116.7 | 1109.4 | 1102.2
x1 = 0.0766 | 1127.3 | 1119.9 | 1112.5
x1 = 0.1017 | 1131.9 | 1124.4 | 1116.9
x1 = 0.1678 | 1142.4 | 1134.7 | 1126.9
x1 = 0.2425 | 1152.1 | 1144.1 | 1136.2
x1 = 0.3825 | 1166 | 1157.8 | 1149.7
x1 = 0.4389 | 1170.5 | 1162.4 | 1154.3
x1 = 0.5207 | 1176.4 | 1168.3 | 1160.3
x1 = 0.6049 | 1181.7 | 1173.7 | 1165.8
x1 = 0.7196 | 1188.1 | 1180.4 | 1172.7
x1 = 0.8106 | 1192.7 | 1185.1 | 1177.6
x1 = 0.8978 | 1196.8 | 1189.4 | 1182.1
x1 = 1 | 1201.2 | 1194 | 1186.9

CCCCCCCC[n+]1ccn(C)c1.F[B-](F)(F)F [1-methyl-3-octylimidazolium tetrafluoroborate] + OCCO
mass density [kg/m3]
Details | 298.15 K | 308.15 K | 318.15 K
x1 = 0.0027 | 1109.9 | 1102.8 | 1095.7
x1 = 0.0046 | 1109.7 | 1102.7 | 1095.4
x1 = 0.0081 | 1109.5 | 1102.4 | 1095.2
x1 = 0.0151 | 1109 | 1101.9 | 1094.6
x1 = 0.0316 | 1108 | 1100.8 | 1093.4
x1 = 0.0614 | 1106.4 | 1099.2 | 1091.7
x1 = 0.083 | 1105.4 | 1098 | 1090.6
x1 = 0.1341 | 1103.5 | 1096 | 1088.6
x1 = 0.2026 | 1101.7 | 1094 | 1086.8
x1 = 0.273 | 1100.4 | 1092.7 | 1085.3
x1 = 0.4125 | 1099.2 | 1091.5 | 1084.2
x1 = 0.5198 | 1099 | 1091.3 | 1084.1
x1 = 0.6306 | 1099.3 | 1091.6 | 1084.5
x1 = 0.7919 | 1100.3 | 1092.6 | 1085.5
x1 = 0.9583 | 1101.6 | 1094 | 1087.1
x1 = 1 | 1101.9 | 1094.32 | 1087.5

CCCCCCCCOS(=O)(=O)[O-].CCCCn1cc[n+](C)c1 [1-butyl-3-methylimidazolium octyl sulfate] + OCCO
mass density [kg/m3]
Details | 298.15 K | 308.15 K | 318.15 K
x1 = 0.0003 | 1109.9 | 1102.8 | 1095.5
x1 = 0.0008 | 1109.8 | 1102.6 | 1095.3
x1 = 0.0012 | 1109.6 | 1102.5 | 1095.2
x1 = 0.0017 | 1109.5 | 1102.4 | 1095.1
x1 = 0.002 | 1109.4 | 1102.3 | 1095
x1 = 0.0038 | 1108.8 | 1101.7 | 1094.4
x1 = 0.007 | 1107.8 | 1100.7 | 1093.4
x1 = 0.0119 | 1106.3 | 1099.2 | 1092
x1 = 0.0174 | 1104.7 | 1097.7 | 1090.5
x1 = 0.0258 | 1102.5 | 1095.5 | 1088.2
x1 = 0.0508 | 1096.8 | 1089.8 | 1082.6
x1 = 0.19 | 1079.9 | 1072.9 | 1065.9
x1 = 0.301 | 1074.2 | 1067.3 | 1060.4
x1 = 0.3712 | 1072.2 | 1065.3 | 1058.4
x1 = 0.4591 | 1070.5 | 1063.6 | 1056.8
x1 = 0.5435 | 1069.4 | 1062.7 | 1055.9
x1 = 0.6225 | 1068.7 | 1062.1 | 1055.4
x1 = 0.7366 | 1068.2 | 1061.5 | 1054.9
x1 = 0.8073 | 1067.9 | 1061.3 | 1054.8
x1 = 0.9007 | 1067.7 | 1061.2 | 1054.6
x1 = 1 | 1067.6 | 1061 | 1054.5
